Experimental data published in patent publication US10131652B2, “Pyrimidinyloxy benzene derivatives as herbicides” (E. I. DU PONT DE NEMOURS AND COMPANY, priority 2014, dated 2018).

How the values were obtained:
Type in all cases: in vivo
[1] = system: barnyardgrass (Echinochloa crus-galli); test: Test B pre-/postemergence plant response
Summary of the method: (§1)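 Seeds in loam–sand blend given preemergence soil spray; separately, plants at one- to two-leaf stage (2–10 cm) sprayed postemergence, compounds in non-phytotoxic solvent with surfactant. Injury rated visually versus untreated controls after ~10 days in greenhouse, 0 (no effect) to 100 (complete control).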

corn (Zea mays) = test: Test B pre-/postemergence plant response
Summary of the method: as §1

[2] = system: giant foxtail (Setaria faberii); test: Test B pre-/postemergence plant response
Summary of the method: as §1

[3] = system: Italian ryegrass (Lolium multiflorum); test: Test B pre-/postemergence plant response
Summary of the method: as §1

[4] = system: ragweed (common ragweed, Ambrosia elatior); test: Test B pre-/postemergence plant response
Summary of the method: as §1

[5] = system: pigweed (Amaranthus retroflexus); test: Test B pre-/postemergence plant response
Summary of the method: as §1

[6] = system: wheat (Triticum aestivum); test: Test B pre-/postemergence plant response
Summary of the method: as §1

kochia (Kochia scoparia) = test: Test B pre-/postemergence plant response
Summary of the method: as §1

[7] = system: ducksalad (Heteranthera limosa); test: Test C flooded paddy test plant response; conditions: Flood, 250 g ai/ha; scale of 0 to 100 where 0 is no effect and 100 is complete control; 13 to 15 days
Summary of the method: (§2)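 Visual injury ratings (0, no effect; 100, complete control) were assigned after 13 to 15 days in a greenhouse, comparing treated plants with controls. Compounds had been added straight into paddy water over 2-leaf-stage plants flooded to 3 cm.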

[8] = system: barnyardgrass (Echinochloa crus-galli); test: Test C flooded paddy test plant response; conditions: Flood, 250 g ai/ha; scale of 0 to 100 where 0 is no effect and 100 is complete control; 13 to 15 days
Summary of the method: as §2

[9] = system: small-flower umbrella sedge (Cyperus difformis); test: Test C flooded paddy test plant response; conditions: Flood, 250 g ai/ha; scale of 0 to 100 where 0 is no effect and 100 is complete control; 13 to 15 days
Summary of the method: as §2

rice (Oryza sativa) = test: Test C flooded paddy test plant response; conditions: Flood, 250 g ai/ha; scale of 0 to 100 where 0 is no effect and 100 is complete control; 13 to 15 days
Summary of the method: as §2

[10] = system: galium (catchweed bedstraw, Galium aparine); test: Test B postemergence plant response
Summary of the method: (§3)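 Weeds grown in loam soil/sand pots were sprayed postemergence at 2 to 10 cm height, one- to two-leaf stage. After approximately 10 days in greenhouse, injury was rated visually against untreated controls on a 0 (no effect) to 100 (complete control) scale; dash means no test result.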

[11] = system: blackgrass (Alopecurus myosuroides); test: Test B postemergence plant response
Summary of the method: as §3

[12] = 31 g ai/ha, Preemergence, 0 to 100 scale where 0 is no effect and 100 is complete control
[13] = 125 g ai/ha, postemergence, 0 to 100 scale, 0 no effect, 100 complete control
[14] = Postemergence, 31 g ai/ha, 0 to 100 scale (0 no effect, 100 complete control)
[15] = Preemergence, 125 g ai/ha, 0 to 100 scale (0 no effect, 100 complete control)

Clc1cnc(Oc2ccccc2-c2cnccn2)nc1 [Compound 163]
50: Plant response rating, Kochia (kochia (Kochia scoparia); [13])
30: Plant response rating, Ragweed [4, 13] | Plant response rating, Ragweed [4, 14] | Plant response rating, Pigweed [5, 13] | Pigweed plant response rating [5, 15] | Plant response rating, Galium [10, 13]
40: Ragweed plant response rating [4, 15]
20: Plant response rating, Pigweed [5, 14] | Plant response rating, Galium [10, 14] | Plant response rating, Blackgrass [11, 13] | Plant response rating, Blackgrass [11, 14]
10: Plant response rating, Corn (corn (Zea mays); [13]) | Plant response rating, Foxtail, Giant [2, 13] | Plant response rating, Kochia (kochia (Kochia scoparia); [14])
0: Plant response rating, Barnyardgrass [1, 12] | Plant response rating, Barnyardgrass [1, 13] | Plant response rating, Barnyardgrass [1, 14] | Barnyardgrass plant response rating [1, 15] | Plant response rating, Corn (corn (Zea mays); [14]) | Plant response rating, Foxtail, Giant [2, 12] | Plant response rating, Foxtail, Giant [2, 14] | Foxtail, Giant plant response rating [2, 15] | Plant response rating, Ryegrass, Italian [3, 12] | Plant response rating, Ryegrass, Italian [3, 13] | Plant response rating, Ryegrass, Italian [3, 14] | Ryegrass, Italian plant response rating [3, 15] | Plant response rating, Ragweed [4, 12] | Plant response rating, Pigweed [5, 12] | Plant response rating, Wheat [6, 13] | Plant response rating, Wheat [6, 14] | Plant response rating, Kochia (kochia (Kochia scoparia); [12]) | Kochia plant response rating (kochia (Kochia scoparia); [15]) | Ducksalad plant response rating [7] | Barnyardgrass plant response rating [8] | Sedge, Umbrella plant response rating [9] | Rice plant response rating (rice (Oryza sativa))

Fc1cnc(Oc2ccccc2-c2cnccn2)nc1 [Compound 164]
30: Plant response rating, Ragweed [4, 13] | Plant response rating, Pigweed [5, 13] | Pigweed plant response rating [5, 15] | Plant response rating, Galium [10, 13]
10: Plant response rating, Galium [10, 14]
20: Plant response rating, Ragweed [4, 14]
0: Plant response rating, Barnyardgrass [1, 12] | Plant response rating, Barnyardgrass [1, 13] | Plant response rating, Barnyardgrass [1, 14] | Barnyardgrass plant response rating [1, 15] | Plant response rating, Corn (corn (Zea mays); [13]) | Plant response rating, Corn (corn (Zea mays); [14]) | Plant response rating, Foxtail, Giant [2, 12] | Plant response rating, Foxtail, Giant [2, 13] | Plant response rating, Foxtail, Giant [2, 14] | Foxtail, Giant plant response rating [2, 15] | Plant response rating, Ryegrass, Italian [3, 12] | Plant response rating, Ryegrass, Italian [3, 13] | Plant response rating, Ryegrass, Italian [3, 14] | Ryegrass, Italian plant response rating [3, 15] | Plant response rating, Ragweed [4, 12] | Ragweed plant response rating [4, 15] | Plant response rating, Pigweed [5, 12] | Plant response rating, Pigweed [5, 14] | Plant response rating, Wheat [6, 13] | Plant response rating, Wheat [6, 14] | Plant response rating, Kochia (kochia (Kochia scoparia); [12]) | Plant response rating, Kochia (kochia (Kochia scoparia); [13]) | Plant response rating, Kochia (kochia (Kochia scoparia); [14]) | Kochia plant response rating (kochia (Kochia scoparia); [15]) | Ducksalad plant response rating [7] | Barnyardgrass plant response rating [8] | Sedge, Umbrella plant response rating [9] | Rice plant response rating (rice (Oryza sativa)) | Plant response rating, Blackgrass [11, 13] | Plant response rating, Blackgrass [11, 14]
